We go through 14 molecules from patent US8431524B2, “Peptide antagonist of interleukin-15 activity” (Centro de Ingenieria Genetica y Biotecnologia, priority 2008, dated 2013).

Like-named read-outs stand apart in the source and are kept apart here. Positions of bridges follow the written chain, without caps; N, C: chain ends. Residues, ends and D or L forms follow the SMILES beside them. Chains are numbered I, II in the order given. No end group written: not given here.

The subject of one assay is CTLL-2 cell line. The following applies: for inhibitory effect of the peptide (in words): from the IC50 values of Table 1; for IC50: 72 h; for activity relative to the original peptide of WO2006/029578 (fold): IL-15-dependent proliferation of CTLL-2. As to the method:
To evaluate the neutralizing capacity of the peptides of the present invention, serial dilutions of these peptides were carried out in 96-well plates (Costar, USA) in a 25 μL volume of RPMI medium (Gibco) supplemented at 10% with calf fetal serum (Gibco). […]
Incubation was carried out for 72 h at 37° C. and 5% CO2. […] MTT is reduced to red formazan by the mitochondrial dehydrogenase of live cells.

The next assay has as its target human IL-15Rα (Homo sapiens, UniProt Q13261). Description: Competition ELISA, displacement of binding of IL-15 to IL-15Rα. A general note: In an ELISA, binding on a coated surface is turned into a signal by an enzyme label.
The subject of the next assay is KiT225 cell line. Nature of the assay: IL-15-induced proliferation assay of the Kit225 cell line (MTT). The note with it: IL-15 300 pg/mL, serial dilutions of peptide; FIG. 3. Format: cell-based, human. As to the method:
To evaluate the neutralizing capacity of the peptides of the present invention, serial dilutions of these peptides were carried out in 96-well plates (Costar, USA) in a 25 μL volume of RPMI medium (Gibco) supplemented at 10% with calf fetal serum (Gibco). Previously washed CTLL-2 or KiT225 cells were added at 5×10^3 cells/well and incubated for 30 min, and a saturating amount of 300 pg/mL IL-15 was added per well.
The antagonistic activity of the peptides was also evaluated, by varying the concentration of IL-15 at a fix concentration of 260 μM of each peptide. Incubation was carried out for 72 h at 37° C. and 5% CO2. Proliferation was assessed by using the MTT mitochondrial staining method (Cosman et al., Nature 1984, 312: 768-771). MTT is reduced to red formazan by the mitochondrial dehydrogenase of live cells. The IC50 was determined to each peptide at a IL-15 concentration of 300 pg/mL.

For assay [1], the system named is prostate cancer cell line PC-3. Description: IL-15Rα-induced IL-6 and IL-8 mRNA expression in PC-3 cells (real time RT-PCR). Format: cell-based. The following applies: peptide 100 μg/mL, IL15-Rα 1 ng/mL. As to the method: The experiment was carried out in 24-well plates by incubating 1.5×10^6 cells with peptides SEQ ID No. 1 and SEQ ID No. 12 at 100 μg/mL and IL15-Rα (1 ng/mL), and also combinations of IL15-Rα and peptides SEQ ID No. 1 and SEQ ID No. 12.
The RNA was isolated by the TriReagent method (Sigma) and analyzed by measuring the O.D. 260/280 nm ratio and Agarose gel electrophoresis. The real time reverse transcription and polymerase chain reaction were carried out by using the Quantitect Reverse Transcription Kit and QuantiTect SYBR Green PCR (QIAGEN) in a Rotor Gene 6000 equipment.
Background: In qPCR the cycle at which signal appears reflects the starting amount.

Assay [2] has as its system synovial fluid cells of RA patients. Nature of the assay: IL-15-mediated TNFα production in synovial fluid cells of RA patients (ELISA). The format is cell-based, human. The following applies: peptide 50 μg/mL plus IL-15 60 ng/mL, 48 h; heading says peptide as a dimer; FIG. 6. As to the method:
After obtaining a written informed consent, synovial fluid from RA patients was extracted and incubated with hyaluronidase at 10 μg per mL of fluid for 45 min at 37° C. Synovial fluid cells were obtained after centrifugation at 1200 rpm for 10 min.
Cells were incubated in 96-well plated at 2×10^5 cells per well with 50 μg/mL of peptide and 60 ng/mL of IL-15 and also a combination of peptide plus IL-15. After incubation for 48 h, supernatants were collected and stored at −70° C. until evaluation. The amount of TNFα was quantified by EL ISA (R&D DTA50).

Assay [3] concerns skin graft from a psoriasis patient. Nature of the assay: Xenotransplant SCID mice model of human psoriasis. Format: in vivo. The following applies: 10 mg/kg, alternate days for two weeks; for grade of parakeratosis in the psoriatic lesion / keratinocytes' cycles / number of inflammatory cells / thickness of the epidermis: H & E; for severity of the disease: biopsy one week after last injection. As to the method: Two to three months-old SCID mice were transplanted with a skin graft of 1.5 cm×1.5 cm from a psoriasis patient. Three weeks after, mice were randomized and distributed in three groups: placebo, mice treated with peptide SEQ ID No. 12 at 10 mg/kg of body weight and cyclosporin A at 10 mg/kg in alternate days for two weeks. One week after the last injection, mice were sacrificed and a 4 mm biopsy was taken from each xenotransplant. Biopsies were fixed in formalin for paraffin embedding, and were stained with hematoxilin and eosin dyes (H & E).

The target of a further assay is IL-15Rα subunit (Homo sapiens, UniProt Q13261). The following applies: IL-15 binding to IL-15Rα; cited from earlier work.
Sequence of IL-15Rα subunit (Q13261 31-267): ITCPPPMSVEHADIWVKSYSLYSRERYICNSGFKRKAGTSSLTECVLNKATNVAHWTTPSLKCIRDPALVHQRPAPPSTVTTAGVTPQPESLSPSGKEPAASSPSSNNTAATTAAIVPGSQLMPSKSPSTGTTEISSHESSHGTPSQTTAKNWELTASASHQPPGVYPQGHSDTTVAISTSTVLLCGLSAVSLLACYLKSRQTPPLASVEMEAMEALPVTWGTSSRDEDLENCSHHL
Assay [4] has as its system CTLL-2 cell line and peripheral blood mononuclear cells (PBMC). The following applies: CTLL-2 cell line and PBMC; cited from earlier work.

Sequence of human IL-15Rα (Q13261 31-205 limits assumed): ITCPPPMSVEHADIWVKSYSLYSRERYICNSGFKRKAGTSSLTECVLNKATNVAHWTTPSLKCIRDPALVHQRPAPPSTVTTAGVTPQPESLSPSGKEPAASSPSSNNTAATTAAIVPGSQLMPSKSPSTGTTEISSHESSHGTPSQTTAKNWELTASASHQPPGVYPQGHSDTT
Description for human IL-15Rα: Peptide binding to the IL15-Rα was characterized by ELISA. Briefly, 96-well plates were coated with purified IL-15 in phosphate buffered saline (PBS) and blocked with bovine albumin at 1% in PBS. Dilutions of each peptide were added to the wells and plates were incubated for 1 h at 37° C. The plates were washed with PBS-Tween 20 and incubated with an IL-15Rα-Fc for 1 h at 37° C. Plates were washed again with PBS-Tween 20 and further incubated an anti Fc-human IgG-peroxidase conjugate for 1 h at 37° C. After washing, the antigen-antibody reaction was run by adding the substrate and 3,3′,5,5′-Tetramethylbenzidine (TMB), and O.D. was read at 450 nm.

As to KVTAMKAFLL, the “inhibitory effect of the peptide (in words)” value (“inhibitory effect … (in words)” for short) in the assay on CTLL-2 cell line is reported as “loss of the inhibitory effect”. Moreover, at human IL-15Rα (ELISA, IL-15 coated plate, IL-15Rα-Fc, FIG. 2), the “displacement of binding of IL-15 to IL-15Rα” value is listed as “does not displace”.

Usually IC50 stands for the midpoint of a concentration-inhibition curve. In the assay on CTLL-2 cell line, KATAMKCFLL-NH2 [KATAMKCFLL] returned an IC50 of 130 µM.

Turning to KVTAAKCFLL-NH2 [KVTAAKCFLL], inhibition with CTLL-2 cell line was half-maximal at 130 µM (IC50).

On to KVTAMKCFAL-NH2 [KVTAMKCFAL], for which the IC50 in the assay on CTLL-2 cell line was 200 µM.

Take KVTAMTCFLL-NH2 [KVTAMTCFLL]: the IC50 in the assay on CTLL-2 cell line was 24.6 µM. Besides, in the assay on CTLL-2 cell line (listed as Lys-Thr mutant), the “activity relative to the original peptide of WO2006/029578 (fold)” value is reported as “five-fold”. Besides, in the assay with CTLL-2 cell line (fixed peptide concentration 260 μM, IL-15 75, 150, 300 pg/mL, FIG. 4), the “antagonistic activity at varying IL-15 concentration” value is “dependence of the antagonistic activity”. In addition, the “inhibitory effect on IL-15-induced proliferation of Kit225” value in the assay with KiT225 cell line was “inhibitory effect depending on the concentration of the peptide”. Moreover, the “IL15-Rα-mediated transcription of IL-8” value in assay [1] (FIG. 5A) was “inhibits transcription”. The “IL15-Rα-mediated transcription of IL-6” value in assay [1] (FIG. 5B) was “inhibits transcription”. In assay [2], the TNFα secretion entry is reported as “inhibits TNFα secretion”. In assay [3], the “grade of parakeratosis in the psoriatic lesion” value is listed as “lowered grade”, the “keratinocytes' cycles” value was “significantly decreased”, the “number of inflammatory cells” value is given as “significantly decreased” and the “thickness of the epidermis” value is recorded as “significant reduction”. For the same molecule, the “severity of the disease” value in assay [3] is “reduction in the severity of the disease”. For the same molecule, the “capacity to bind to the IL-15Rα” value at human IL-15Rα was “retains the capacity to bind to the IL-15Rα”.

KVTAMTCYLL-NH2 [KVTAMTCYLL] returned an IC50 in the assay with CTLL-2 cell line of 57.7 µM.

One may read the Kd as the concentration at which binding is half-saturated. As for “IL-15: 14-15 kDa cytokine, T cell activating factor”, the Kd with IL-15Rα subunit was 0.01 nM.

On to KVTAMECFLL, for which, in the assay with CTLL-2 cell line, the “activity relative to the original peptide of WO2006/029578 (fold)” value is listed as “ten-fold” and the “inhibitory effect … (in words)” value was “loss of the inhibitory effect”.

As for `CSCC[C@H](NC(=O)[C@H](C)NC(=O)[C@@H](NC(=O)[C@@H](NC(=O)[C@@H](N)CCCCN)C(C)C)[C@@H](C)O)C(=O)N[C@H](C(=O)N[C@@H](CSSC[C@H](NC(=O)[C@@H](NC(=O)[C@H](CCSC)NC(=O)[C@H](C)NC(=O)[C@@H](NC(=O)[C@@H](NC(=O)[C@@H](N)CCCCN)C(C)C)[C@@H](C)O)[C@@H](C)O)C(=O)N[C@@H](Cc1ccccc1)C(=O)N[C@@H](CC(C)C)C(=O)N[C@@H](CC(C)C)C(N)=O)C(=O)N[C@@H](Cc1ccccc1)C(=O)N[C@@H](CC(C)C)C(=O)N[C@@H](CC(C)C)C(N)=O)[C@@H](C)O` [SEQ ID No. 12 dimer] (I: H-KVTAMTCFLL-NH2 / II: H-KVTAMTCFLL-NH2; disulfide I:7-II:7 (inferred); N-terminus assumed), in the assay on CTLL-2 cell line, 8 µM corresponded to half-maximal inhibition (IC50) and the “activity relative to the original peptide of WO2006/029578 (fold)” value is listed as 15. Besides, the “activity of the dimer relative to the monomer (fold)” value with CTLL-2 cell line (dimer linked through the free Cys) is recorded as “seven times more active”. Besides, in the assay on KiT225 cell line, the “inhibitory effect on IL-15-induced proliferation of Kit225” value is on record as “higher inhibitory effect”. Also, in assay [3], the “grade of parakeratosis in the psoriatic lesion” value was “lowered grade”, the “keratinocytes' cycles” value is reported as “significantly decreased”, the “number of inflammatory cells” value is on record as “significantly decreased” and the “thickness of the epidermis” value is on record as “significant reduction”. The “severity of the disease” value in assay [3] is on record as “reduction in the severity of the disease”.

For KVTAMKCFLA-NH2 [KVTAMKCFLA], 260 µM corresponded to half-maximal inhibition in the assay with CTLL-2 cell line (IC50).

In turn, KVAAMKCFLL-NH2 [KVAAMKCFLL] displayed an IC50 with CTLL-2 cell line of 130 µM.

“KVTAMKCFLL-NH2 [KVTAMKCFLL, reference compound]”: the half-inhibitory concentration (IC50) with CTLL-2 cell line stood at 130 µM.

With KVTAMKSFLL, the “inhibitory effect … (in words)” value with CTLL-2 cell line is given as “loss of the inhibitory effect”.

B1: 146B7: Genmab antibody specific for IL-15, targets the region interacting with IL-15Rγ (antibody, chains of the INN, looked up, V domains shown)
VH: EVQLVQSGAEVKKPGESLKISCKVSGYFFTTYWIGWVRQMPGKGLEYMGIIYPGDSDTRYSPSFQGQVTISADKSISTAYLQWSSLKASDTAMYYCARGGNWNCFDYWGQGTLVTVSS
VL: EIVLTQSPGTLSLSPGERATLSCRASQSVSSSYLAWYQQKPGQAPRLLIYGASRRATGIPDRFSGSGSGTDFTLTISRLEPEDFAVYYCQRYGSSHTFGQGTKLEIS
For the molecule B1, the “inhibition of IL-15-induced cell proliferation” value in assay [4] was “inhibit the IL-15-induced cell proliferation”.
